In patent US6689596B2, “High level expression of human cyclooxygenase-2” (Merck & Co., Inc., priority 1992, dated 2004):

Columns and labels:
[1] = target: T1, cyclooxygenase-1 (U-937 microsomes) (Homo sapiens, UniProt P23219); assay: Microsomal cyclooxygenase assay, U-937 microsomes; type: biochemical; settings: 20 μM arachidonic acid
T1 construct: host or cells: microsomal fraction of U-937 cells
Method: COX-1 cells are grown and maintained in culture as described above, washed in a suitable buffer, such as PBS, and cell pellets or concentrates stored, preferably at −80° C. […] The cell homogenate is then concentrated and resuspended. In our preferred procedure the cell homogenate is centrifuged at 10,000× g for 10 minutes at 4° C. The supernatant fraction is then recentrifuged at 100,000× g for 2 hours at 4° C., and the resulting microsomal pellet resuspended in a suitable buffer, such as 0.1 M Tris-HCl, 1 mM EDTA, pH 7.4 to a protein concentration of approximately 1 to 10 mg/ml. Aliquots of osteosarcoma microsomal preparations may be stored at reduced temperature and thawed prior to use.
(§1) Microsomal preparations from Human osteosarcoma and U937 cells are diluted in buffer, such as 0.1 M Tris-HCl, 10 mM EDTA, pH 7.4, (Buffer A) to a protein concentration of 50 to 500 µg/ml. […] Typically, assays are performed in either duplicate or triplicate. Peroxide-free arachidonic acid (CAYMAN) in Buffer A is then added to a final concentration of 20 μM arachidonic acid, followed by incubation, preferably at room temperature for 10 to 60 minutes. Control samples contained ethanol or other vehicle instead of arachidonic acid. Following incubation, the reaction was terminated by addition of HCl or other mineral acid. Prior to analysis of PGE2 levels, samples were neutralized. Levels of PGE2 in samples may be quantitated as described for the whole cell cyclooxygenase assay.
U-937 cells were grown and maintained in culture as described above, washed in PBS, and cell pellets frozen at −80° C. […] The cell homogenate was then centrifuged at 10,000× g for 10 minutes at 4° C. The supernatant fraction was then recentrifuged at 100,000× g for 2 hours at 4° C., and the resulting microsomal pellet resuspended in 0.1 M Tris-HCl, 1 mM EDTA, pH 7.4 to a protein concentration of approximately 4 mg/ml. 500 μl aliquots of osteosarcoma microsomal preparations were stored at −80° C. and thawed on ice immediately prior to use.
All subsequent assay steps, including the dilution of stock solutions of test compounds, were automated using the BIOMEK 100 (BIORAD). 5 μl of test compound or DMSO vehicle was added, with mixing, to 20 μl of buffer A in a 96-well minitube plate (BECKMAN). 200 μl of microsome suspension was then added, followed by mixing and incubation for 5 minutes at room temperature. Assays were performed in either duplicate or triplicate. […] of peroxide-free arachidonic acid (CAYMAN) in buffer A is then added to a final concentration of 20 μM aracidonic acid, with mixing, followed by incubation at room temperature for 40 minutes. Control samples contained ethanol vehicle instead of arachidonic acid. Following the incubation period, the reaction was terminated by the addition of 25 μl of 1N HCl, with mixing. Prior to analysis of PGE2 levels, samples were neutralized by the addition of 25 μl of 1 N NaOH. Levels of PGE2 in samples were quantitated by enzyme immunoassay (CAYMAN) as described for the whole cell cyclooxygenase assay.

[2] = target: T2, cyclooxygenase-2 (osteosarcoma 143.98.2 microsomes) (Homo sapiens, UniProt P35354); assay: Microsomal cyclooxygenase assay, osteosarcoma 143.98.2 microsomes; type: biochemical; settings: 20 μM arachidonic acid
T2 construct: The cell homogenates were then subjected to a differential centrifugation protocol to yield an enriched microsomal preparation; endogenous in cells; host or cells: microsomal fraction of human osteosarcoma 143.98.2 cells
T2 sequence (P35354 18-604): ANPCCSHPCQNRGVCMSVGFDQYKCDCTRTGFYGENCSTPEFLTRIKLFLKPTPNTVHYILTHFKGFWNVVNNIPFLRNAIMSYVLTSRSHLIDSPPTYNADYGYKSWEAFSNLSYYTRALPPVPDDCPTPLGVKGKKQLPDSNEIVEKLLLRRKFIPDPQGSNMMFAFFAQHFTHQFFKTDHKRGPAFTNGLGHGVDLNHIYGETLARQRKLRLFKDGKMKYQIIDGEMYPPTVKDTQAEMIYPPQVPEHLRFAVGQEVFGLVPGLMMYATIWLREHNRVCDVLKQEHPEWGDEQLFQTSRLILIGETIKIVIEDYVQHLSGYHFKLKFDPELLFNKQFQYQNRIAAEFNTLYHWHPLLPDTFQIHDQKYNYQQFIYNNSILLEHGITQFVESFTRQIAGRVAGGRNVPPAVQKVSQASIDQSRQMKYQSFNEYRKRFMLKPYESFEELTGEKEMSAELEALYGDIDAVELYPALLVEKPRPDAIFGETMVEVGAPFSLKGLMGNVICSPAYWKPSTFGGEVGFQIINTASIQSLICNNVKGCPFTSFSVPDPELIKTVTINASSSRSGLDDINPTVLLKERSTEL
Method: Human osteosarcoma cells may be grown and maintained in culture as described above. Approximately 10^5 to 10^7 cells are plated in tissue culture plates such as available from NUNCLON and maintained in culture for 2 to 7 days. Cells may be washed with a suitable buffer such phosphate buffered saline, (PBS), pH 7.2. Cells are then removed from the plate, preferably by scraping into PBS. Samples may then be concentrated, such as by centrifuging at 400× g for 10 minutes at 4° C. Cell pellets or other concentrates are either stored at a suitable reduced temperature such as −80° C., or processed immediately. All further manipulations of the cells are preferably performed at 0-4° C. […] Enriched microsomal preparations are then prepared, such as by differential centrifugation to yield an enriched microsomal preparation. In our preferred procedure, the first step consists of four sequential centrifugations of the cell homogenate at 10,000× g for 10 min at 4° C. After each centrifugation at 10,000×.g, the supernatant is retained and recentrifuged. Following the fourth centrifugation, the supernatant is centrifuged at 100,000× g for 60-90 min at 4° C. to pellet the microsomal fraction. […] The resulting microsomal suspension is recentrifuged such as at 100,000× g for 90 min at 4° C. to recover the microsomes. Following this centrifugation the microsomal pellet is resuspended in a stabilizing buffer, such as 0.1 M Tris-Cl, pH 7.4, containing 10 mM EDTA at a protein concentration of approximately 2-5 mg/ml. Aliquots of osteosarcoma microsomal preparations may be stored at low temperature, such as at −80° C. and thawed prior to use.
as §1
Cells were washed twice with 100 ml of phosphate buffered saline, pH 7.2, (PBS) and then scraped from the plate with a sterile rubber scraper into PBS. Samples were then centrifuged at 400× g for 10 minutes at 4° C. Cell pellets were either stored at −80° C. until use or processed immediately. All further manipulations of the cells were performed at 0-4° C. […] The cell homogenates were then subjected to a differential centrifugation protocol to yield an enriched microsomal preparation. The first step consisted of four sequential centrifugations of the cell homogenate at 10,000× g for 10 min at 4° C. After each centrifugation at 10,000× g the supernatant was retained and recentrifuged. Following the fourth centrifugation, the supernatant was centrifuged at 100,000× g for 60-90 min at 4° C. to pellet the microsomal fraction. […] The resulting microsomal suspension was recentrifuged at 100,000× g for 90 min at 4° C. to recover the microsomes. […] 500 μl aliquots of osteosarcoma microsomal preparations were stored at −80° C. and thawed on ice immediately prior to use.
All subsequent assay steps, including the dilution of stock solutions of test compounds, were automated using the BIOMEK 100 (BIORAD). 5 μl of test compound or DMSO vehicle was added, with mixing, to 20 μl of buffer A in a 96-well minitube plate (BECKMAN).

[3] = target: T3, cyclooxygenase-1 (U-937 cells) (Homo sapiens, UniProt P23219); assay: Whole cell cyclooxygenase assay, PGE2 synthesis by U-937 cells in response to exogenous arachidonic acid; type: cell-based
T3 construct: the appropriate number of U-937 cells were removed from spinner cultures and centrifuged; host or cells: U-937 human histiocytic lymphoma cells (intact)
Method: Such cells are hereinafter described as COX-1 cells. Prior to assay, the appropriate number of COX-1 cells (10^5 to 10^7 cells/ml) are removed from cultures and concentrated using a technique such as by centrifugation at 300× g for 10 minutes. The supernatant is decanted and cells are washed in a suitable buffer. […] Following incubation of human osteosarcoma cells or COX-1 cells in a suitable buffer, a test compound and/or vehicle samples (such as DMSO) is added, and the resulting composition gently mixed. Preferably the assay is performed in triplicate. Arachidonic acid is then added in proportions as described above. […] Control samples should contain ethanol or other vehicle instead of arachidonic acid. […] For osteosarcoma cells, reactions may be stopped by the addition HCl or other acid, preferably combined with mixing, or by the rapid removal of media directly from cell monolayers. For U-937 cells, reactions may be advantageously be performed in multiwell dishes or microcentrifuge tubes and stopped by the addition of HCl or another mineral acid. Typically, samples assayed in 24-multidishes are then transferred to microcentrifuge tubes, and all samples frozen on dry ice. Similarly, samples are typically stored at -20° C. or below prior to analysis of PGE2 levels. […] Samples are then preferably mixed, such as by vortexing, and PGE2 levels measured using a PGE2 enzyme immunoassay, such as is commercially available from CAYMAN. We have advantageously conducted the plating, washing and color development steps as an automated sequence using a BIOMEK 1000 (BECKMAN). […] Levels of PGE2 are calculated from the standard curve, and may optionally determined using BECKMAN IMMUNOFIT EIA/RIA analysis software. […] Inhibition of PGE2 synthesis by test compounds is calculated between PGE2 levels in samples incubated in the absence or presence of […]. […] For routine subculturing, cells were diluted in fresh medium and transferred to fresh flasks. […] The supernatant was decanted and cells washed in 50 ml of HBSS prewarmed to 37° C. Cells were again pelleted at 300× g for 10 minutes and resuspended in prewarmed HBSS to a final cell density of approximately 1.5×10^6 cells/ml. 1 ml aliquots of cell suspension were transferred to 1.5 ml microcentrifuge tubes or 24-well multidishes (Nunclon). […] All assays were performed in triplicate. […] Control samples contained ethanol vehicle instead of arachidonic acid. Samples were again gently mixed and incubated for a further 10 minutes at 37° C. […] For U-937 cells, reactions in multiwell dishes or microcentrifuge tubes were stopped by the addition of 100 μl of 1N HCl, with mixing. Samples assayed in 24-multidishes were then transferred to microcentrifuge tubes, and all samples were frozen on dry ice. Samples were stored at -20° C. prior to analysis of PGE2 levels. […] Samples were then mixed by vortexing, and PGE2 levels measured using a PGE2 enzyme immunoassay (CAYMAN) according to the manufacturers instructions. The plating, washing and colour development steps of this procedure were automated using a BIOMEK 1000 (BECKMAN). […] Levels of PGE2 were calculated from the standard curve determined using BECKMAN IMMUNOFIT EIA/RIA analysis software.

osteosarcoma 143 cells = assay: PGE2 synthesis by osteosarcoma 143 cells in response to arachidonic acid after treatment with growth factors/cytokines; type: cell-based, human; settings: 10 pg/ml; within a 3-hour period, 1% serum; relative to cells grown in the absence of these factors

T1 sequence (P23219 24-599): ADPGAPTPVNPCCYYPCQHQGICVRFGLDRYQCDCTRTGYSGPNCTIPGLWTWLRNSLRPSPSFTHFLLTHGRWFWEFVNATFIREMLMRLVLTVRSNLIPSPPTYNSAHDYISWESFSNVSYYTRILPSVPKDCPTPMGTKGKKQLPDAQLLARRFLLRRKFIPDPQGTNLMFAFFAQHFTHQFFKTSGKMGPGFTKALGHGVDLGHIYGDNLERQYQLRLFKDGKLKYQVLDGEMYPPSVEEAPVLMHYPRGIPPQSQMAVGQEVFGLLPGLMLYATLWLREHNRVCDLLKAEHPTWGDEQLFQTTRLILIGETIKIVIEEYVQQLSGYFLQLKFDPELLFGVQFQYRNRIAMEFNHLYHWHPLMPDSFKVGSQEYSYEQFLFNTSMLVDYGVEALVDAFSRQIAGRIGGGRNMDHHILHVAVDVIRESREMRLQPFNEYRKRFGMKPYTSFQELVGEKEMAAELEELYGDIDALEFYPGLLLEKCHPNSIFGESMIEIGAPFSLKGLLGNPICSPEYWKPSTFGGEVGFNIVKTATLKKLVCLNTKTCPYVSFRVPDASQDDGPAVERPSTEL
T3 sequence (P23219 24-599): as above

Row | Compound | inhibition at 0.1 µM ([1]; drug 100 nM) | inhibition at 3 µM ([1]; drug 3 uM) | 143.98.2 % Inhibition ([2]; drug 100 nM) | 143.98.2 % Inhibition ([2]; drug 3 uM) | U-937 % Inhibition ([1]; drug 100 nM) | U-937 % Inhibition ([1]; drug 3 uM) | further results
1 | CS(=O)(=O)Nc1cc2c(cc1Oc1ccc(F)cc1F)C(=O)CC2 [Flosulide] | 0% | 0% | – | – | – | – | –
2 | O=C(O)c1ccccc1Nc1cccc(C(F)(F)F)c1 [Flufenamic] | – | – | 16% | 36% | 5% | 0% | –
3 | CS(=O)(=O)Nc1ccc([N+](=O)[O-])cc1OC1CCCCC1 [NS-398] | 0% | 0% | – | – | – | – | U-937 PGE2 ([3]; sample 0.3 nM): 18.3 ng/10^6 cells; U-937 PGE2 ([3]; sample 1.0 nM): 17.7 ng/10^6 cells; U-937 PGE2 ([3]; sample 3.0 nM): 18.3 ng/10^6 cells; U-937 PGE2 ([3]; sample 10 nM): 20.4 ng/10^6 cells; U-937 PGE2 ([3]; sample 30.0 nM): 17.7 ng/10^6 cells; U-937 PGE2 ([3]; sample 100 nM): 18.9 ng/10^6 cells
4 | Cc1cc(CC(=O)O)n(C)c1C(=O)c1ccc(Cl)cc1 [Zomipirac] | – | – | 45% | 66% | 30% | 67% | –
5 | IL1-β: human recombinant IL1-β (R and D systems Inc.) | – | – | – | – | – | – | levels of PGE2 synthesis by osteosarcoma 143 cells in response to arachidonic acid (osteosarcoma 143 cells): increased

Second part, led by results:

Row | inhibition at 0.1 µM ([1]; drug 100 nM) | inhibition at 3 µM ([1]; drug 3 uM) | 143.98.2 % Inhibition ([2]; drug 100 nM) | 143.98.2 % Inhibition ([2]; drug 3 uM) | U-937 % Inhibition ([1]; drug 100 nM) | U-937 % Inhibition ([1]; drug 3 uM) | Compound | further results
6 | 6% | 48% | – | – | – | – | CS(=O)(=O)c1ccc(-c2cc(Br)sc2-c2ccc(F)cc2)cc1 [DuP-697] | –
7 | – | – | 20% | 26% | 0% | 0% | CC(=O)c1ccc(NS(C)(=O)=O)c(Oc2ccc(F)cc2F)c1 [FK-3311] | –
8 | – | – | – | – | 57% | 89% | CC(C(=O)O)c1ccc(-c2ccccc2)c(F)c1 (centres unmarked) [Fluribprofen] | –
9 | 0% | 4% | – | – | – | – | CSc1ccc(/C=C2/C(C)=C(CC(=O)O)c3cc(F)ccc32)cc1 [Sulindac sulfide] | –
